The results in this text go back to ChEMBL document CHEMBL1201862, “PubChem BioAssay data set” (2004).

Assay [1] concerns the target T1, Tyrosine-protein phosphatase non-receptor type 22 (Homo sapiens, UniProt Q9Y2R2).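 Also: confirmatory dose-response retest of primary uHTS hits for inhibition of LYP phosphatase, measured by a fluorescence intensity read-out.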
T1 sequence (Q9Y2R2 whole entry): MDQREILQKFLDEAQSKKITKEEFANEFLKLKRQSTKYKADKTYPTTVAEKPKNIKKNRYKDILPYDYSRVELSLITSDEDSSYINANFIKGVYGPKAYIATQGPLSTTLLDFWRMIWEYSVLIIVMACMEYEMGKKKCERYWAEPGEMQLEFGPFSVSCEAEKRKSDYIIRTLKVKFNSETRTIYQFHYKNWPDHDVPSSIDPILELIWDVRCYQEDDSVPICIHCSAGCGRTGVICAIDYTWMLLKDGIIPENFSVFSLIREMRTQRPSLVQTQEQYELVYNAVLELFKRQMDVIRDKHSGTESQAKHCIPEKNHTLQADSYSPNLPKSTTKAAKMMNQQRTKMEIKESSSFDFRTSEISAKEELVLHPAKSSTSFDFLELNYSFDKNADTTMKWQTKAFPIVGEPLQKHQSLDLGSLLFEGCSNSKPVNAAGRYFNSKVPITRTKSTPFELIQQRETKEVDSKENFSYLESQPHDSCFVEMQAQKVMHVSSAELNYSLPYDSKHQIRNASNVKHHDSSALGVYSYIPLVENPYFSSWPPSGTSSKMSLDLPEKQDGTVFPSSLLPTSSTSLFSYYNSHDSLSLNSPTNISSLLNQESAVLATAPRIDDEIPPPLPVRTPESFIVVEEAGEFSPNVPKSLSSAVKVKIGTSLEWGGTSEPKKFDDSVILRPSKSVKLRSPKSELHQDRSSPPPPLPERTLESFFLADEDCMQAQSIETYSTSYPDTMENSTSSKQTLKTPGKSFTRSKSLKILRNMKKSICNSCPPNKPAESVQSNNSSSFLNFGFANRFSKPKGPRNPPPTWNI
The format is functional.

Assay [2] in a line: reduction of Shn3 3'UTR-driven luciferase in osteoblasts – cell-based, Clone20 osteoblasts, firefly luciferase, cherry-picked, dose response (AID 624132).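 Also: firefly luciferase luminescence from reporter carrying the Shn3 3'UTR in osteoblasts.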 The format is functional.
The nature of assay [3]: toxicity toward HepG2 liver cells – cell-based, plate reader, cherry-pick, antagonist series, cytotoxicity control, dose response (AID 743416). The assay is classed as functional.
The target in assay [4] is T2, Tyrosyl-DNA phosphodiesterase 2 (Homo sapiens, UniProt O95551).
T2 sequence (O95551 whole entry): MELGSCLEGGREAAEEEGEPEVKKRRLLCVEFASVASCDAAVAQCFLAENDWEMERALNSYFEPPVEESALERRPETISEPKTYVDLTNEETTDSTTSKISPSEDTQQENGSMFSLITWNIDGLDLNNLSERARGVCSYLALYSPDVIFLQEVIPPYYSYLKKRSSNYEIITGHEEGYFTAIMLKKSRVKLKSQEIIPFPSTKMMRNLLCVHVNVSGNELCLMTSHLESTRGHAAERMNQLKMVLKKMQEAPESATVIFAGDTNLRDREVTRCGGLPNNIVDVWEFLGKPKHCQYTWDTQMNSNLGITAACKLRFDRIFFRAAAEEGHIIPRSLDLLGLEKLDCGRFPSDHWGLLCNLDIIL
The assay is described as follows: potency against TDP2 phosphodiesterase activity – biochemical, epi absorbance, IC50, dose response (AID 743297).

For assay [5], the target named is RNA-editing ligase 1, mitochondrial (Trypanosoma brucei brucei, UniProt P86926). The assay is described as follows: inhibition of trypanosome RNA editing ligase – biochemical, fluorescence, Trypanosoma brucei, dose response (AID 1117295). The format is functional.
Assay [6] has as its target Serine/threonine-protein phosphatase PP1-alpha catalytic subunit (Homo sapiens, UniProt P62136). Kind of assay: inhibition of protein phosphatase 1 activity – biochemical, fluorescence, dose response (AID 2394).
In assay [7] the target is T3, Sentrin-specific protease 8 (Homo sapiens, UniProt Q96LD8).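 Also: luminescence read-out of SENP8 inhibition, dose-response confirmation following an ultra-high-throughput screen.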
T3 sequence (Q96LD8 whole entry): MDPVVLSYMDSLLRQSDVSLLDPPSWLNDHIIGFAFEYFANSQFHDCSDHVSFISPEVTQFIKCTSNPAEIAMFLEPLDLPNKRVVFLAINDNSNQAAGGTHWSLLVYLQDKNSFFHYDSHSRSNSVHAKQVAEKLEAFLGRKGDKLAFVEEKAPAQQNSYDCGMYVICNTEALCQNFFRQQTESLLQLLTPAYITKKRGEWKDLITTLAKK
The assay is classed as functional.

Assay [8] deals with Ribosomal protein S6 kinase beta-1 (Homo sapiens, UniProt P23443). The format is functional.
For assay [9], the target named is Death-associated protein kinase 3 (Homo sapiens, UniProt O43293). The assay is classed as functional.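 Also: measured as one member of a kinome-wide profiling panel.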
Assay [10] addresses Serine/threonine-protein kinase PAK 1 (Homo sapiens, UniProt Q13153). The assay is classed as functional.
Assay [11] has as its target Homeodomain-interacting protein kinase 2 (Homo sapiens, UniProt Q9H2X6). The assay is classed as functional.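 Also: measured within a kinome-wide kinase profiling panel, HIPK2 being one panel member.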
Assay [12] has as its target MAP/microtubule affinity-regulating kinase 3 (Homo sapiens, UniProt P27448). The format is functional.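 Also: MARK3 affinity measured as one member of a kinome panel.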
The target in assay [13] is Protein-tyrosine kinase 2-beta (Homo sapiens, UniProt Q14289). The format is functional.
Sequence of Protein-tyrosine kinase 2-beta (Q14289 whole entry): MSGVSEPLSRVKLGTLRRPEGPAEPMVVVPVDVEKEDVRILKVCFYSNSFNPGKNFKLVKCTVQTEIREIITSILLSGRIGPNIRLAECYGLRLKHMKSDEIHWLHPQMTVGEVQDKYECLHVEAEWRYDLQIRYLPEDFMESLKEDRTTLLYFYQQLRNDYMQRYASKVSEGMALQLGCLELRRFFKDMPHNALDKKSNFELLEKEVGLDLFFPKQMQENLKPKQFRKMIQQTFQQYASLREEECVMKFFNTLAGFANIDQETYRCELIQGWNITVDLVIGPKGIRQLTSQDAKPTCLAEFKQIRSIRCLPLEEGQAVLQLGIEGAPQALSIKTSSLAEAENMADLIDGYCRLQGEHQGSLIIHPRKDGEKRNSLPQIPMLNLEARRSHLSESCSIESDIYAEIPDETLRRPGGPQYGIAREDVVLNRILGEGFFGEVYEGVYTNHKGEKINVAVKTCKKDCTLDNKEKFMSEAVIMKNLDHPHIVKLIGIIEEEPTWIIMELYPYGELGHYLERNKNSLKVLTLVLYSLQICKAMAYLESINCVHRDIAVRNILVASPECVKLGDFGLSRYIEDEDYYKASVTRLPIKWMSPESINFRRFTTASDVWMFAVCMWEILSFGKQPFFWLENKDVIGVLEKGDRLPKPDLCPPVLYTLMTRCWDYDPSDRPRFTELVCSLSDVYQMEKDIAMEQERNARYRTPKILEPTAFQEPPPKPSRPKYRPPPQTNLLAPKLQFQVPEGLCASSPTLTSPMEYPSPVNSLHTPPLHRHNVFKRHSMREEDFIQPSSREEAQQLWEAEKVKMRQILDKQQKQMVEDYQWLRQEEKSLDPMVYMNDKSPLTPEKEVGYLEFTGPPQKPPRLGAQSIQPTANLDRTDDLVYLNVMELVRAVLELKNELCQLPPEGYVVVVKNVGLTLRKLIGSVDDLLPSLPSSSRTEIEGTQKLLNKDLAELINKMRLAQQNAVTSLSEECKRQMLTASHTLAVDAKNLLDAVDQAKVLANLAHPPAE
In assay [14] the target is Glycogen synthase kinase-3 alpha (Homo sapiens, UniProt P49840). The assay is classed as functional.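 Also: GSK3A result taken from a broad kinome-wide kinase panel.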
Sequence of Glycogen synthase kinase-3 alpha (P49840 whole entry, canonical isoform): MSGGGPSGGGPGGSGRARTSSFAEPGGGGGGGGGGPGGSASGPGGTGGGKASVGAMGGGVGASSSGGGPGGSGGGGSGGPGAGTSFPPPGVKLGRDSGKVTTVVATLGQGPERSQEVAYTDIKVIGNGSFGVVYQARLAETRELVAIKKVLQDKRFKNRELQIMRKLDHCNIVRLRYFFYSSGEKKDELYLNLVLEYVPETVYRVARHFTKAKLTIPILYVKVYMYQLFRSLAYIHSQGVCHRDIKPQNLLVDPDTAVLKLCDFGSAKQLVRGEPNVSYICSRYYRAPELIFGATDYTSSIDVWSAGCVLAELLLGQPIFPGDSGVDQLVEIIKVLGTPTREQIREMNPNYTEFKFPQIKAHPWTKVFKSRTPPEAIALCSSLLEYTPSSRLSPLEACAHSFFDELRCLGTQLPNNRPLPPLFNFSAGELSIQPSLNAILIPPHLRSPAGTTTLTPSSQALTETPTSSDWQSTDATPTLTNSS
The target in assay [15] is Casein kinase I isoform delta (Homo sapiens, UniProt P48730). The assay is classed as functional.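 Also: measured as one member (CSNK1D) of a kinome panel.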
Sequence of Casein kinase I isoform delta (P48730 whole entry, canonical isoform): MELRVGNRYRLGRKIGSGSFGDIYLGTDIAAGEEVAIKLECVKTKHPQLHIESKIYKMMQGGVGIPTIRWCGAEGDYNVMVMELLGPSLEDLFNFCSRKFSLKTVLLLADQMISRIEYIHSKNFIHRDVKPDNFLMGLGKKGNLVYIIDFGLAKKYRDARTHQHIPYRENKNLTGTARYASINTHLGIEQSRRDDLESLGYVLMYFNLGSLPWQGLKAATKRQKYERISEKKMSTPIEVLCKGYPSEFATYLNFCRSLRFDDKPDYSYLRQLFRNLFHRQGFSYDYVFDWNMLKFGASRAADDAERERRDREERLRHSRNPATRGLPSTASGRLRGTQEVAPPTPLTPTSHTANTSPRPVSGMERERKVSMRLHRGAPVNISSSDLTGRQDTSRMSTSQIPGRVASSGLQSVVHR
The target in assay [16] is Cyclin-dependent kinase 5 (Homo sapiens, UniProt Q00535). The assay is classed as functional.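 Also: CDK5 measured as one member of a kinase profiling panel.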
Sequence of Cyclin-dependent kinase 5 (Q00535 whole entry): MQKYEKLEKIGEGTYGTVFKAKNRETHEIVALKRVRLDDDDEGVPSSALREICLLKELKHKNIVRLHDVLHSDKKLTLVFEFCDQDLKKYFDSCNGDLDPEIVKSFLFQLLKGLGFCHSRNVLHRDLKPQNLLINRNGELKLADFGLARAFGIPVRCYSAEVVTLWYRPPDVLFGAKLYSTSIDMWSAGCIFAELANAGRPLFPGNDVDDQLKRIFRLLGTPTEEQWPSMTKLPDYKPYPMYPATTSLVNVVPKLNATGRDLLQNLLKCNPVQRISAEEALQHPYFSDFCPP
Assay [17] deals with Insulin-like growth factor 1 receptor (Homo sapiens, UniProt P08069). The assay is described as follows: Navigating the Kinome. Panel member name: IGF1R. The format is functional.
For assay [18], the target named is Tyrosine-protein kinase Fyn (Homo sapiens, UniProt P06241). The format is functional.
Assay [19] has as its target Vascular endothelial growth factor receptor 1 (Homo sapiens, UniProt P17948). The assay is classed as functional.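 Also: measured within a kinome-wide profiling panel, FLT1 as the panel member.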

Active and inactive are the calls of the source.

Sequence of Vascular endothelial growth factor receptor 1 (P17948 whole entry): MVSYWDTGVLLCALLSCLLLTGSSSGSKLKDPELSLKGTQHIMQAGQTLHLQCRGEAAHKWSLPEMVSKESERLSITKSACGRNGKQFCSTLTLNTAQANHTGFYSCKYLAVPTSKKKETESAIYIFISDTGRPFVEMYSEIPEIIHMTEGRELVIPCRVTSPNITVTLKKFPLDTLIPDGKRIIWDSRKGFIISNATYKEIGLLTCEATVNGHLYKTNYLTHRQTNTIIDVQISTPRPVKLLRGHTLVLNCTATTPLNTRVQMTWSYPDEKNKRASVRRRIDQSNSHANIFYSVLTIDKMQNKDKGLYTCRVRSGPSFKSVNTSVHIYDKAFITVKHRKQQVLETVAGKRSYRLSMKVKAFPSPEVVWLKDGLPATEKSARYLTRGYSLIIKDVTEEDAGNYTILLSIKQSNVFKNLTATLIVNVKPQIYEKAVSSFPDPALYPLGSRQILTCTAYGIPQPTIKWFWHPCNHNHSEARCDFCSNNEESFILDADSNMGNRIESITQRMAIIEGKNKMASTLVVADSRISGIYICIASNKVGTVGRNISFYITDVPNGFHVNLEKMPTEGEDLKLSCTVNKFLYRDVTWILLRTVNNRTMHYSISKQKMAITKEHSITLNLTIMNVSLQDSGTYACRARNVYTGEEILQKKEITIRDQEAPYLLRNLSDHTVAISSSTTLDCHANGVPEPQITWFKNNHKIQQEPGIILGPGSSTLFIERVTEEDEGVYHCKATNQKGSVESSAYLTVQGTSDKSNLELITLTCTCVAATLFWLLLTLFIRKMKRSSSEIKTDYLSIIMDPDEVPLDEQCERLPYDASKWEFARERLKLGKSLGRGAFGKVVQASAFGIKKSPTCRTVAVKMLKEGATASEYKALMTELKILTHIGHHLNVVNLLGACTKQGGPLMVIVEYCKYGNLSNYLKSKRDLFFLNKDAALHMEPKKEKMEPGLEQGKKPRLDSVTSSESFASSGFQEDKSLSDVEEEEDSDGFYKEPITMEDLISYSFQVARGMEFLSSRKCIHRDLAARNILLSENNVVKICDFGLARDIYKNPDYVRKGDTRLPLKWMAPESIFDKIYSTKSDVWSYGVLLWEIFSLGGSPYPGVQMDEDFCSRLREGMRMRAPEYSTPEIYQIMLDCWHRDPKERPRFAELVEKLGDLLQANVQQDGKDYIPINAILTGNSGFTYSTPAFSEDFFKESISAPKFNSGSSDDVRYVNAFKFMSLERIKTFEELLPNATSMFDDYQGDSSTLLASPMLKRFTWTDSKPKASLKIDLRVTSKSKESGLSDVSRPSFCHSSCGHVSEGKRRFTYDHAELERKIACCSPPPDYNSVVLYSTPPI
Sequence of Serine/threonine-protein phosphatase PP1-alpha catalytic subunit (P62136 whole entry): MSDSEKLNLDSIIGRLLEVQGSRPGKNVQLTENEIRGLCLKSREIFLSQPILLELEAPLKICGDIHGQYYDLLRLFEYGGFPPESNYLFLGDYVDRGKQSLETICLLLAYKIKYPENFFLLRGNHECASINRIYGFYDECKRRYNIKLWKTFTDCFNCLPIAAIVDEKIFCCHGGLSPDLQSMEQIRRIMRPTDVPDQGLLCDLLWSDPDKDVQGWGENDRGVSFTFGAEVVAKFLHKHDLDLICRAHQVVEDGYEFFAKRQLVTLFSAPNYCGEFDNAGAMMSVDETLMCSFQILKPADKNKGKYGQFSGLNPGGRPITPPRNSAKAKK
Sequence of Homeodomain-interacting protein kinase 2 (Q9H2X6 whole entry): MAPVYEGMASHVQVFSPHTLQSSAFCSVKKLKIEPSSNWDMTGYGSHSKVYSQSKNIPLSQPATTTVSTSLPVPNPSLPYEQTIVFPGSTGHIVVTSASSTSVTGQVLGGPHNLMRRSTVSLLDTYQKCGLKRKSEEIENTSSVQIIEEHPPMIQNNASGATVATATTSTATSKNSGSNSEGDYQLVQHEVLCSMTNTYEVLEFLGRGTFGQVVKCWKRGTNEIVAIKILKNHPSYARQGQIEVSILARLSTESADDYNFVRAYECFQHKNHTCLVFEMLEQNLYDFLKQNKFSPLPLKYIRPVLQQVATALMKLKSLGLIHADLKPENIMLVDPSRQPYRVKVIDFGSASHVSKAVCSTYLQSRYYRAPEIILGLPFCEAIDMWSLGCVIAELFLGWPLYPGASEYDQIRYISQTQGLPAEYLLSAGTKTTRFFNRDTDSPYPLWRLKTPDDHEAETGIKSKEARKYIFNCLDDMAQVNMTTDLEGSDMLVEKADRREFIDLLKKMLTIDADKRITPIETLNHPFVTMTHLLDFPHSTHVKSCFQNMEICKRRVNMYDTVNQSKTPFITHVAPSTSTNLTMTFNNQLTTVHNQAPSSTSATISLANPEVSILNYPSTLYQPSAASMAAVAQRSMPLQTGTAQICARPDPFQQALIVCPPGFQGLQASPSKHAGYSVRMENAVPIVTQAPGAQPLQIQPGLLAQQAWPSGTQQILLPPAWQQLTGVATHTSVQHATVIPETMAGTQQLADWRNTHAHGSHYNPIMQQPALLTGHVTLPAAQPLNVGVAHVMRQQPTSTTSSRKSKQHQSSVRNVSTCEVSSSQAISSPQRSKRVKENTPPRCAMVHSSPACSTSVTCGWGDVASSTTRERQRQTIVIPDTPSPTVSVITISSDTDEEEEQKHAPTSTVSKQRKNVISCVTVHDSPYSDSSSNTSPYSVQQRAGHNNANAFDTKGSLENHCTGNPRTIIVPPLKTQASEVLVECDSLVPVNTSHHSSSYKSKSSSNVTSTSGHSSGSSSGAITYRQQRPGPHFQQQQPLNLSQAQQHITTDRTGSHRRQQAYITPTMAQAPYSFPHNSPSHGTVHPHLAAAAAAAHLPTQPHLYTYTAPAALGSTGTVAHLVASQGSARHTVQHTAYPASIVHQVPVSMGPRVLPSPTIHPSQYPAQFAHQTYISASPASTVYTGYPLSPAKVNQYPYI

As for `CCCc1nc2c(=O)n(C)c(=O)nc-2n(C)n1`, the IC50 is 1.6 µM (active) in assay [1], 0.161 µM (active) in assay [4] and 0.494 µM (active) in assay [5]. For the same compound, the half-maximal activity concentration (AC50) in assay [2] was 2.17 µM (active); in [3], 3.39 µM (active).

Consider `CC(=O)c1ccc(NC2=C(N3CCOCC3)C(=O)c3ccccc3C2=O)cc1`, for which the values for the IC50 in assay [6], in [7] and in assay [4] were > 67 µM (not active), 18.8 µM (active) and > 128 µM (inactive), respectively.

Consider `COc1cc2ncn(-c3cc(OCc4ccccc4C(F)(F)F)c(C(N)=O)s3)c2cc1OC` [GW843682X], for which the Ki in assay [8] is > 6.31 µM (inactive); in assay [9], > 1.26 µM (inactive); in assay [10], > 10 µM (inactive); in [11] it was > 3.16 µM (inactive); in assay [12], > 6.31 µM (inactive); in assay [13], 0.158 µM (active). Further, the Ki in assay [14] was > 7.94 µM (inactive); in assay [15], > 7.94 µM (inactive); in [16] it was > 10 µM (inactive); in assay [17], > 1 µM (inactive); in assay [18], > 0.794 µM (inactive); in assay [19] it was 0.126 µM (active).

By IC50 is commonly meant the concentration that gives 50% inhibition. Usually AC50 stands for the concentration giving half of the maximal activity seen. The term Ki denotes a measure of affinity in units of concentration, obtained from inhibition or displacement.
